Experiments:
AXL = molecular target: T1, AXL (Homo sapiens, UniProt P30530); assay: TR-FRET kinase activity assay, AXL; format: biochemical; conditions: ATP at Km, 60 minutes
T1 sequence (P30530 26-894): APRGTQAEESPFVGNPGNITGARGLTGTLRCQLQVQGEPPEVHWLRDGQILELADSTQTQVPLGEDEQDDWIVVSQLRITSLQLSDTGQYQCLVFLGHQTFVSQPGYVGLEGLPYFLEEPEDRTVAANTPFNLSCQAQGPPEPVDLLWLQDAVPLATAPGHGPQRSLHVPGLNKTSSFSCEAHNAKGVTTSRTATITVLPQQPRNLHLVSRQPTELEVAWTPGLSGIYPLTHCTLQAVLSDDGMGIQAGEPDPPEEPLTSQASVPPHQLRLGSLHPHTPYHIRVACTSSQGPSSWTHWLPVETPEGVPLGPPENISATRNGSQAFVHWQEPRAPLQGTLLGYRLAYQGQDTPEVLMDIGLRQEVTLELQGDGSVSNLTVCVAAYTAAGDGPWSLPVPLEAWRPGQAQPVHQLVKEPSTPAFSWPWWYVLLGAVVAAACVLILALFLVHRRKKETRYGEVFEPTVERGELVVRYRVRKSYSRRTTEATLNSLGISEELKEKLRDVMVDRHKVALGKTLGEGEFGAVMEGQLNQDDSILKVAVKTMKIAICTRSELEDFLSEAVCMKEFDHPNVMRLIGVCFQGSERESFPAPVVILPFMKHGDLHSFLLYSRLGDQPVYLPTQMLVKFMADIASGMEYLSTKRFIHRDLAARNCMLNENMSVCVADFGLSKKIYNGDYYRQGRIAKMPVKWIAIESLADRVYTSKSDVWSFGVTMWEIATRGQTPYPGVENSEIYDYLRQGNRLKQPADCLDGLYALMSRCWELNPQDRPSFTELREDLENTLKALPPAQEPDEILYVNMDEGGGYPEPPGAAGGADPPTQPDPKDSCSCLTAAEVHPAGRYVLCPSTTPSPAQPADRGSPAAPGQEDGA
Procedure, shortened: (§1)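 Enzyme, fluorescent-labeled peptide substrate and compound were mixed, then ATP was added at each enzyme's Km. Buffer was 50 mM HEPES pH 7.5, 10 mM MgCl2, 1 mM EGTA, 0.01% Brij 35, 1 mM DTT at RT. After 60 min, EDTA quench and 30 min with Eu-anti-phosphotyrosine-site antibody; TR-FRET read gave IC50.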

MERTK = molecular target: T2, MERTK (Homo sapiens, UniProt Q12866); assay: TR-FRET kinase activity assay, MERTK; format: biochemical; conditions: for IC50: TR-FRET activity assay, ATP at Km, 60 minutes, read-out: Mer IC50; for Mer/Flt3 ratio (FLT3 IC50/Mer IC50): ratio calculated as FLT3 IC50/Mer IC50
T2 sequence (Q12866 21-999): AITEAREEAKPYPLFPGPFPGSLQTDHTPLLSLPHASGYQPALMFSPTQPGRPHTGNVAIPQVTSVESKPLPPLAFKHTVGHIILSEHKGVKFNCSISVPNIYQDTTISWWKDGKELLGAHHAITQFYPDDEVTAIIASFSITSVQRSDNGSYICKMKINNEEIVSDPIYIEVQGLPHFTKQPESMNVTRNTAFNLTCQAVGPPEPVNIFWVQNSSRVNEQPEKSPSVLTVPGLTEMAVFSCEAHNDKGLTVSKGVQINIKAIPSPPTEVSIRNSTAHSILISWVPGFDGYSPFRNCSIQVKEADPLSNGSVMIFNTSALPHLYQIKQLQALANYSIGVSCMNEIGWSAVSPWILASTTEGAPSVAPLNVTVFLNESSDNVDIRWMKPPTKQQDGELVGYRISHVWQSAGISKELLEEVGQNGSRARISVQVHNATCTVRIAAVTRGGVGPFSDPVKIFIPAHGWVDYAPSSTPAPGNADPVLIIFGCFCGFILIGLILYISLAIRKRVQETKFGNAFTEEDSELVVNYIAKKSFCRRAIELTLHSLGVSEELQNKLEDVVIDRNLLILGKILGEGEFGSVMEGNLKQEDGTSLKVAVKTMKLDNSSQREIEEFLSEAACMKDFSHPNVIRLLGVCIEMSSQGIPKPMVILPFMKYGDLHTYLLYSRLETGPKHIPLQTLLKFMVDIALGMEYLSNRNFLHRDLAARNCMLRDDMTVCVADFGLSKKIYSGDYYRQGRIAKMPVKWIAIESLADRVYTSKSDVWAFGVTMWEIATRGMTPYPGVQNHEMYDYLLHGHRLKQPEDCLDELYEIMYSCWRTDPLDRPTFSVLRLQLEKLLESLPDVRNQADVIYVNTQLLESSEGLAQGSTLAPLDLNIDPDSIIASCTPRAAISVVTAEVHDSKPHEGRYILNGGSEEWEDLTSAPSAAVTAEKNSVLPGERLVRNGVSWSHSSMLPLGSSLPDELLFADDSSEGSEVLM
Procedure, shortened: as §1

SMILES	IC50 (AXL)	IC50 (MERTK)	Mer/Flt3 ratio (FLT3 IC50/Mer IC50) (MERTK)
COC[C@H](C)Nc1ncc2c(OC3C[C@@H](C)N(C)[C@H](C)C3)ncc([C@H]3CC[C@H](O)CC3)c2n1 (stereo partly drawn) [Compound 388]	100 to 1000 nM	≤ 100 nM	+++ (a ratio of >100)
C[C@@H](CC(F)(F)F)Nc1ncc2c(OC3CCN(S(C)(=O)=O)CC3)ncc([C@H]3CC[C@H](O)CC3)c2n1 [Compound 389]	100 to 1000 nM	≤ 100 nM	+++ (a ratio of >100)
COCCN1C(C)(C)CC(Oc2ncc([C@H]3CC[C@H](O)CC3)c3nc(N[C@@H]4CCOC4)ncc23)CC1(C)C [Compound 390]	100 to 1000 nM	≤ 100 nM	++ (a ratio of between 10 and 100)
COC[C@H](C)Nc1ncc2c(O[C@H]3C[C@@H](C(=O)N4CCN(C)CC4)C3)ncc([C@H]3CC[C@H](O)CC3)c2n1 [Compound 393]	100 to 1000 nM	≤ 100 nM	+++ (a ratio of >100)
C[C@@H](Nc1ncc2c(OC3CCOCC3)ncc([C@H]3CC[C@H](O)CC3)c2n1)C(F)F [Compound 394]	100 to 1000 nM	≤ 100 nM	+++ (a ratio of >100)
COC[C@H](C)Nc1ncc2c(OC3CCOCC3)ncc(-c3ccc(F)cc3)c2n1 [Compound 395]	1000 to 10000 nM	100 to 1000 nM	++ (a ratio of between 10 and 100)
COC[C@H](C)Nc1ncc2c(OC3CCOCC3)ncc(-c3ccc(C#N)cc3)c2n1 [Compound 396]	1000 to 10000 nM	≤ 100 nM	+++ (a ratio of >100)
CNC(=O)c1ccc(Nc2ncc3c(OC4CCOCC4)ncc([C@H]4CC[C@H](O)CC4)c3n2)cc1 [Compound 398]	100 to 1000 nM	≤ 100 nM	+ (a ratio of >2.0 and <10)
COC[C@H](C)Nc1ncc2c(OC3CCOCC3)ncc(-c3ccc(S(C)(=O)=O)cc3)c2n1 [Compound 400]	1000 to 10000 nM	100 to 1000 nM	++ (a ratio of between 10 and 100)
C[C@H](CF)Nc1ncc2c(OC3CCOCC3)ncc([C@H]3CC[C@H](O)CC3)c2n1 [Compound 401]	100 to 1000 nM	≤ 100 nM	+++ (a ratio of >100)
COC[C@H](C)Nc1ncc2c(C(F)(F)F)ncc([C@H]3CC[C@H](O)CC3)c2n1 [Compound 403]	1000 to 10000 nM	100 to 1000 nM	++ (a ratio of between 10 and 100)
CC1(Nc2ncc3c(OC4CCOCC4)ncc(-c4cccc(NS(C)(=O)=O)c4)c3n2)CC1 [Compound 404]	100 to 1000 nM	≤ 100 nM	++ (a ratio of between 10 and 100)
CC1(Nc2ncc3c(OC4CCOCC4)ncc(-c4cccc(S(=O)(=O)N5CCC5)c4)c3n2)CC1 [Compound 405]	100 to 1000 nM	≤ 100 nM	+++ (a ratio of >100)
C[C@H](CC(F)(F)F)Nc1ncc2c(O[C@H]3C[C@@H](O)C3)ncc([C@H]3CC[C@H](O)CC3)c2n1 [Compound 406]	1000 to 10000 nM	≤ 100 nM	+++ (a ratio of >100)
C[C@@H](COC(F)F)Nc1ncc2c(O[C@H]3C[C@@H](O)C3)ncc([C@H]3CC[C@H](O)CC3)c2n1 [Compound 407]	100 to 1000 nM	≤ 100 nM	+++ (a ratio of >100)
C[C@@H](CC(F)(F)F)Nc1ncc2c(O[C@H]3C[C@@H](N4CCOCC4)C3)ncc([C@H]3CC[C@H](O)CC3)c2n1 [Compound 408]	100 to 1000 nM	≤ 100 nM	+++ (a ratio of >100)
C[C@@H](CC(F)(F)F)Nc1ncc2c(O[C@H]3C[C@@H](O)C3)ncc(-c3ccc(C4(C#N)CC4)cc3)c2n1 [Compound 409]	1000 to 10000 nM	≤ 100 nM	++ (a ratio of between 10 and 100)

Further lines, results first:

IC50 (AXL)	IC50 (MERTK)	Mer/Flt3 ratio (FLT3 IC50/Mer IC50) (MERTK)	SMILES
100 to 1000 nM	≤ 100 nM	+++ (a ratio of >100)	COCCN1C(C)(C)CC(Oc2ncc([C@H]3CC[C@H](O)CC3)c3nc(N[C@@H](C)CCO)ncc23)CC1(C)C [Compound 380]
≤ 100 nM	≤ 100 nM	+++ (a ratio of >100)	COCCN1C(C)(C)CC(Oc2ncc([C@H]3CC[C@H](O)CC3)c3nc(N[C@@H](C)CF)ncc23)CC1(C)C [Compound 381]
100 to 1000 nM	≤ 100 nM	+++ (a ratio of >100)	C[C@@H](CF)Nc1ncc2c(OC3CC(C)(C)N(C)C(C)(C)C3)ncc([C@H]3CC[C@H](O)CC3)c2n1 [Compound 382]
100 to 1000 nM	≤ 100 nM	+++ (a ratio of >100)	C[C@@H](CC(F)(F)F)Nc1ncc2c(OC3CCN([C@H]4CCOC4)CC3)ncc([C@H]3CC[C@H](O)CC3)c2n1 [Compound 383]
100 to 1000 nM	≤ 100 nM	+++ (a ratio of >100)	COC[C@H](C)Nc1ncc2c(O[C@H]3CCN(C)C(C)(C)C3)ncc([C@H]3CC[C@H](O)CC3)c2n1 [Compound 384]
100 to 1000 nM	≤ 100 nM	+++ (a ratio of >100)	COC[C@H](C)Nc1ncc2c(O[C@@H]3CCN(C)C(C)(C)C3)ncc([C@H]3CC[C@H](O)CC3)c2n1 [Compound 385]
≤ 100 nM	≤ 100 nM	+++ (a ratio of >100)	C[C@@H](CC(F)(F)F)Nc1ncc2c(OC3CC(C)(C)N(C)C(C)(C)C3)ncc([C@H]3CC[C@H](O)CC3)c2n1 [Compound 386]
100 to 1000 nM	≤ 100 nM	+++ (a ratio of >100)	COC[C@H](C)Nc1ncc2c(OC3C[C@H](C)N(C)[C@@H](C)C3)ncc([C@H]3CC[C@H](O)CC3)c2n1 (stereo partly drawn) [Compound 387]
≤ 100 nM	≤ 100 nM	+++ (a ratio of >100)	CCN1C(C)(C)CC(Oc2ncc([C@H]3CC[C@H](O)CC3)c3nc(N[C@@H](C)CC(F)(F)F)ncc23)CC1(C)C [Compound 391]
≤ 100 nM	≤ 100 nM	+++ (a ratio of >100)	O[C@H]1CC[C@H](c2cnc(OC3CCOCC3)c3cnc(Nc4ccc(-c5nn[nH]n5)cc4)nc32)CC1 [Compound 392]
≤ 100 nM	≤ 100 nM	++ (a ratio of between 10 and 100)	O=C(O)c1ccc(Nc2ncc3c(OC4CCOCC4)ncc([C@H]4CC[C@H](O)CC4)c3n2)cc1 [Compound 397]
≤ 100 nM	≤ 100 nM	NS (a ratio of ≤2.0)	NC(=O)c1ccc(Nc2ncc3c(OC4CCOCC4)ncc([C@H]4CC[C@H](O)CC4)c3n2)cc1 [Compound 399]
≤ 100 nM	≤ 100 nM	+++ (a ratio of >100)	C[C@@H](CC(F)(F)F)Nc1ncc2c(O[C@H]3C[C@@H](CN4CCOCC4)C3)ncc([C@H]3CC[C@H](O)CC3)c2n1 [Compound 402]

From patent US20200291018A1, “TAM KINASE INHIBITORS” (SYROS PHARMACEUTICALS, INC., priority 2017, published 2020)
